Assay results from ChEMBL document CHEMBL5463728, “Data for DCP probe BAY-6096” (2023).

Tests used:
[1] = biological target: Alpha-1A adrenergic receptor (Homo sapiens) (UniProt P35348); conditions: Compound concentration 10.0 uM
[2] = biological target: Histamine H3 receptor (Homo sapiens) (UniProt Q9Y5N1); conditions: Compound concentration 10.0 uM
[3] = biological target: Alpha-2C adrenergic receptor (Homo sapiens, UniProt P18825); assay: Adrenoceptor reporter cell assay (ADRA2C); assay type: functional
[4] = biological target: Sigma intracellular receptor 2 (Homo sapiens) (UniProt Q5BJF2); conditions: Compound concentration 10.0 uM
[5] = biological target: GABA-A receptor; anion channel (Rattus norvegicus) (UniProt O09028+P15431+P18506+P18508+P19969+P20236+P23574+P23576+P28471+P28473+P30191+P62813+P63079+P63138+Q91ZM7+Q9ES14); conditions: Compound concentration 10.0 uM
[6] = biological target: D(1A) dopamine receptor (Homo sapiens) (UniProt P21728); conditions: Compound concentration 10.0 uM
[7] = biological target: D(3) dopamine receptor (Homo sapiens) (UniProt P35462); conditions: Compound concentration 10.0 uM
[8] = biological target: Beta-3 adrenergic receptor (Homo sapiens, UniProt P13945); conditions: Compound concentration 10.0 uM
[9] = biological target: 5-hydroxytryptamine receptor 2A (Homo sapiens) (UniProt P28223); conditions: Compound concentration 10.0 uM
[10] = biological target: 5-hydroxytryptamine receptor 3A (Homo sapiens) (UniProt P46098); conditions: Compound concentration 10.0 uM
[11] = biological target: D(4) dopamine receptor (Homo sapiens) (UniProt P21917); conditions: Compound concentration 10.0 uM
[12] = biological target: Muscarinic acetylcholine receptor M5 (Homo sapiens) (UniProt P08912); conditions: Compound concentration 10.0 uM
[13] = biological target: 5-hydroxytryptamine receptor 7 (Homo sapiens) (UniProt P34969); conditions: Compound concentration 10.0 uM
[14] = biological target: Sodium-dependent serotonin transporter (Homo sapiens) (UniProt P31645); conditions: Compound concentration 10.0 uM
[15] = biological target: 5-hydroxytryptamine receptor 1D (Homo sapiens) (UniProt P28221); conditions: Compound concentration 10.0 uM
[16] = biological target: Alpha-1A adrenergic receptor (Homo sapiens, UniProt P35348); assay: Adrenoceptor reporter cell assay (ADRA1A); assay type: functional
[17] = biological target: Alpha-1B adrenergic receptor (Homo sapiens) (UniProt P35368); conditions: Compound concentration 10.0 uM
[18] = biological target: T1, Muscarinic acetylcholine receptor M2 (Homo sapiens) (UniProt P08172); conditions: Compound concentration 10.0 uM
T1 sequence (whole entry): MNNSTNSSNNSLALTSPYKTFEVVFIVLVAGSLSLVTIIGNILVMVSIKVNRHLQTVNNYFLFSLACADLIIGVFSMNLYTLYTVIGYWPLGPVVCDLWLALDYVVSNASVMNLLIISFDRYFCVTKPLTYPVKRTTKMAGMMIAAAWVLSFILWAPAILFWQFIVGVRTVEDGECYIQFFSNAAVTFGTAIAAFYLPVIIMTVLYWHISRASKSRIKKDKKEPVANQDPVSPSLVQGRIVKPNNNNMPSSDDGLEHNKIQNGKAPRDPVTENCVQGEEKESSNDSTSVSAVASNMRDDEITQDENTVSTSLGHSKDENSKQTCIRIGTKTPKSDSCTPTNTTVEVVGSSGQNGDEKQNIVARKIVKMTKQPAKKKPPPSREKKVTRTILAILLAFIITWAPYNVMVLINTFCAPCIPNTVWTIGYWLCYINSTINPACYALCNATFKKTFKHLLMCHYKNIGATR

[19] = biological target: Delta-type opioid receptor (Homo sapiens) (UniProt P41143); conditions: Compound concentration 10.0 uM
[20] = biological target: Muscarinic acetylcholine receptor M3 (Homo sapiens) (UniProt P20309); conditions: Compound concentration 10.0 uM
[21] = biological target: Sigma non-opioid intracellular receptor 1 (Homo sapiens) (UniProt Q99720); conditions: Compound concentration 10.0 uM
[22] = biological target: T2, D(2) dopamine receptor (Homo sapiens, UniProt P14416); assay: Bayer Inhouse […] panel (DRD2)
[23] = biological target: Kappa-type opioid receptor (Homo sapiens) (UniProt P41145); conditions: Compound concentration 10.0 uM
[24] = biological target: T2, D(2) dopamine receptor; conditions: Compound concentration 10.0 uM
[25] = biological target: Sodium-dependent noradrenaline transporter (Homo sapiens) (UniProt P23975); conditions: Compound concentration 10.0 uM
[26] = biological target: Alpha-2A adrenergic receptor (Homo sapiens) (UniProt P08913); conditions: Compound concentration 10.0 uM
[27] = biological target: Histamine H4 receptor (Homo sapiens) (UniProt Q9H3N8); conditions: Compound concentration 10.0 uM
[28] = biological target: T3, 5-hydroxytryptamine receptor 1A (Homo sapiens) (UniProt P08908); conditions: Compound concentration 10.0 uM
T3 sequence (whole entry): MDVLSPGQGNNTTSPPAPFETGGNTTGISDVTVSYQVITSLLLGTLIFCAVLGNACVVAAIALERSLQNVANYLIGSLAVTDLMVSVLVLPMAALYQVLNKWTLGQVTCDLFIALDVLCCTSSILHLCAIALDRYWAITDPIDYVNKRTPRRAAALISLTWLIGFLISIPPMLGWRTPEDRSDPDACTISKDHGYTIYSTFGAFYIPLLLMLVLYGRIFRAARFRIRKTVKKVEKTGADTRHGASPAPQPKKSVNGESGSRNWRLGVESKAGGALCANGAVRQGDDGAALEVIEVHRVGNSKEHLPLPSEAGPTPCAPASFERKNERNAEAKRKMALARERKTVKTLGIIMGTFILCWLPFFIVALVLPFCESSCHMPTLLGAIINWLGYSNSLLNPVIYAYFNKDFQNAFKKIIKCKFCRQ

[29] = biological target: 5-hydroxytryptamine receptor 5A (Homo sapiens) (UniProt P47898); conditions: Compound concentration 10.0 uM
[30] = biological target: Beta-1 adrenergic receptor (Homo sapiens, UniProt P08588); conditions: Compound concentration 10.0 uM
[31] = biological target: Alpha-2A adrenergic receptor (Homo sapiens, UniProt P08913); assay: Adrenoceptor reporter cell assay (ADRA2A); assay type: functional
[32] = biological target: 5-hydroxytryptamine receptor 2B (Homo sapiens) (UniProt P41595); conditions: Compound concentration 10.0 uM
[33] = biological target: Histamine H1 receptor (Homo sapiens) (UniProt P35367); conditions: Compound concentration 10.0 uM
Histamine H1 receptor (Homo sapiens), sequence (P35367 whole entry): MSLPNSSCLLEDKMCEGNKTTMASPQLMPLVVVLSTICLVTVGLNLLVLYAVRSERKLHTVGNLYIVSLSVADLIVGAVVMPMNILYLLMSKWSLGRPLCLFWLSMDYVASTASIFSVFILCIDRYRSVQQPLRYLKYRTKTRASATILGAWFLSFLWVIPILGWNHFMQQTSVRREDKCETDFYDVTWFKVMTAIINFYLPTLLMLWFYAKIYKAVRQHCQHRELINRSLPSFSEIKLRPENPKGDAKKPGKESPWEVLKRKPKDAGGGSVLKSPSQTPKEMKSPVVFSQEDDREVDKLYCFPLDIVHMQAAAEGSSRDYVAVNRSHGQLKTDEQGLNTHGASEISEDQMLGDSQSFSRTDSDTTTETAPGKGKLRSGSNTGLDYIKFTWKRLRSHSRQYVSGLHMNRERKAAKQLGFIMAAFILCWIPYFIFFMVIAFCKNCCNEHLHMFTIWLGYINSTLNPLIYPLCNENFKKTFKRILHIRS

Kappa-type opioid receptor (Homo sapiens), sequence (P41145 whole entry): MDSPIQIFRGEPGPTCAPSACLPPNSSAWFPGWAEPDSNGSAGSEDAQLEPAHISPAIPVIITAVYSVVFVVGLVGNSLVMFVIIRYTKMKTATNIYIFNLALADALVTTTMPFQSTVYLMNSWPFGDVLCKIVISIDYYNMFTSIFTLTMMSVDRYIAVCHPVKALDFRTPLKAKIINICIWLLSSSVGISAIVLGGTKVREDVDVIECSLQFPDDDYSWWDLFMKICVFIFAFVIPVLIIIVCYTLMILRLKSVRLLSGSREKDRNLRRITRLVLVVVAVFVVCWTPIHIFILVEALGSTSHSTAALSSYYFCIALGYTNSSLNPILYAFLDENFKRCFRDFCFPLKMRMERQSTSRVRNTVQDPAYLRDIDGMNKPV
Sigma non-opioid intracellular receptor 1 (Homo sapiens), sequence (Q99720 whole entry): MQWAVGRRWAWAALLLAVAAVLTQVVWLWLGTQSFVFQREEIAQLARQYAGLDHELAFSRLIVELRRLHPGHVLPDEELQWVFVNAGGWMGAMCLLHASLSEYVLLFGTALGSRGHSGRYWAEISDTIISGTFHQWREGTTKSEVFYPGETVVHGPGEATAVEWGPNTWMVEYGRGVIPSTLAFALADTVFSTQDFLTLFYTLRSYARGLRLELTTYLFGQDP
Muscarinic acetylcholine receptor M3 (Homo sapiens), sequence (P20309 whole entry, looked up): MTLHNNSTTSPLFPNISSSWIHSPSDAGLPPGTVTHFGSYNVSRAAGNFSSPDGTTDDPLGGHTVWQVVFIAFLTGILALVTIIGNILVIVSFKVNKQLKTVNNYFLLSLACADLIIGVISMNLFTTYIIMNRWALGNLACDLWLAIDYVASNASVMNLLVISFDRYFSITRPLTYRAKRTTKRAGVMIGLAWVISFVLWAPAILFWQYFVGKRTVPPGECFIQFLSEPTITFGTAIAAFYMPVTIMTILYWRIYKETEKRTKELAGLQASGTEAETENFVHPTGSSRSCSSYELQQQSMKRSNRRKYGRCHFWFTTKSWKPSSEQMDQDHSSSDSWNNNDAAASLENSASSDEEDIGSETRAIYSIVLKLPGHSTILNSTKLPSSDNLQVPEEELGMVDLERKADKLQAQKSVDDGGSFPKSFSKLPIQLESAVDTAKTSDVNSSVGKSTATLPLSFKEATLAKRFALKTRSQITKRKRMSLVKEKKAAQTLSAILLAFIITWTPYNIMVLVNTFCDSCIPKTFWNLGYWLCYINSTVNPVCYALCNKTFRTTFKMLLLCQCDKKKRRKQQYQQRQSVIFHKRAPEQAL
Beta-3 adrenergic receptor, sequence (P13945 whole entry, looked up): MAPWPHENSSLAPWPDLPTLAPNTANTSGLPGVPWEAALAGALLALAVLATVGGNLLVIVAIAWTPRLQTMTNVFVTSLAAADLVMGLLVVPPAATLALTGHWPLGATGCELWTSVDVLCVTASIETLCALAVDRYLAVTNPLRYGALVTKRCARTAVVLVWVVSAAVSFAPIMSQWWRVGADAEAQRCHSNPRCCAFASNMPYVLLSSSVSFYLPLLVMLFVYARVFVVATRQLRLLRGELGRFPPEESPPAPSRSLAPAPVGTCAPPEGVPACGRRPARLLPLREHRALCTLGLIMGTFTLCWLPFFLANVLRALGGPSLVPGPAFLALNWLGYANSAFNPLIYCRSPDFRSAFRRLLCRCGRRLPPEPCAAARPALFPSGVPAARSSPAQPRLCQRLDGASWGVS
Alpha-1B adrenergic receptor (Homo sapiens), sequence (P35368 whole entry): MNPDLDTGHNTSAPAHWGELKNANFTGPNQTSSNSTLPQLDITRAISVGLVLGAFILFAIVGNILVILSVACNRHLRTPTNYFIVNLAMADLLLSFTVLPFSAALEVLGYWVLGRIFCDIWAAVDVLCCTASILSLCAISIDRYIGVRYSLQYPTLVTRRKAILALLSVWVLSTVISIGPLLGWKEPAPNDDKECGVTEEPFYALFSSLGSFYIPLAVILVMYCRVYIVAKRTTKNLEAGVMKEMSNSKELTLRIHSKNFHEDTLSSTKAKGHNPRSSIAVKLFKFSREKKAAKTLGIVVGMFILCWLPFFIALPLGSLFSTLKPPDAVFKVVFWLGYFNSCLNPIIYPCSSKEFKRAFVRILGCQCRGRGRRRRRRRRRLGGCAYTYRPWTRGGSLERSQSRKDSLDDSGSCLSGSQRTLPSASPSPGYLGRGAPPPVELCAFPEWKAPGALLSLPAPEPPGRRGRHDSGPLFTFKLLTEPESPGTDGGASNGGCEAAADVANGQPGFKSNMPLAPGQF
5-hydroxytryptamine receptor 1D (Homo sapiens), sequence (P28221 whole entry): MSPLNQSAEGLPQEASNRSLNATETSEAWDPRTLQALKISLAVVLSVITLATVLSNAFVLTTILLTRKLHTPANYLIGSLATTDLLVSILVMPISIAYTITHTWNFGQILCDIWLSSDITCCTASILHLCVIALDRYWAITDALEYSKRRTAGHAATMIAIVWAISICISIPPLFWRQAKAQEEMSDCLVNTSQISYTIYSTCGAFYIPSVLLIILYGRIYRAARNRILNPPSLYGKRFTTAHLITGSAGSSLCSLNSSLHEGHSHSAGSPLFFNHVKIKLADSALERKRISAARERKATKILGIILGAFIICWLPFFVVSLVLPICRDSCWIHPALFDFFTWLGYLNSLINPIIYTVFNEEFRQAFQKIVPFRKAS
Alpha-2A adrenergic receptor (Homo sapiens), sequence (P08913 whole entry): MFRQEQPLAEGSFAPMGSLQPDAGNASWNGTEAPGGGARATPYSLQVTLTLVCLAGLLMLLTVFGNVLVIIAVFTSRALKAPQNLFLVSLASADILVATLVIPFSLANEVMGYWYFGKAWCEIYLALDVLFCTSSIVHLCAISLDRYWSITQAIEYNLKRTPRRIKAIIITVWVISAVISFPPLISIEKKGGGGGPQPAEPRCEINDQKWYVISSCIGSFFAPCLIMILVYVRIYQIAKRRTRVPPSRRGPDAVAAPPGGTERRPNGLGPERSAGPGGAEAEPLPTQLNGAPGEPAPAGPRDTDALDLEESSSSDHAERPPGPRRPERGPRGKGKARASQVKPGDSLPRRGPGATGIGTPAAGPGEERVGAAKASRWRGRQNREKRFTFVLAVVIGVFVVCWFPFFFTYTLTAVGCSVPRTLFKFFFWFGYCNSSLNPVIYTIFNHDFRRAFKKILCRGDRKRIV
Histamine H3 receptor (Homo sapiens), sequence (Q9Y5N1 whole entry): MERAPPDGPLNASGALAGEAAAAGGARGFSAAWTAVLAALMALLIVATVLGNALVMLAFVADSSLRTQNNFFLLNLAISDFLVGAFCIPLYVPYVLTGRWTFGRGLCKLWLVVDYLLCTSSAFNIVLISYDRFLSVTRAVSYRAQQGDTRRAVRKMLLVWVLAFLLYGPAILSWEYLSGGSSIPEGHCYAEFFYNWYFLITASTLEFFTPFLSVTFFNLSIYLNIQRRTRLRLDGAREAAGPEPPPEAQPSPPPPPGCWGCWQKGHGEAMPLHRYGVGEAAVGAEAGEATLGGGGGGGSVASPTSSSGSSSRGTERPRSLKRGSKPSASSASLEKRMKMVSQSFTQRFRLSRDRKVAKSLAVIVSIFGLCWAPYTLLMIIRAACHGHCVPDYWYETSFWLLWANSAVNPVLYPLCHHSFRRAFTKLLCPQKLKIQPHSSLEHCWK
5-hydroxytryptamine receptor 5A (Homo sapiens), sequence (P47898 whole entry): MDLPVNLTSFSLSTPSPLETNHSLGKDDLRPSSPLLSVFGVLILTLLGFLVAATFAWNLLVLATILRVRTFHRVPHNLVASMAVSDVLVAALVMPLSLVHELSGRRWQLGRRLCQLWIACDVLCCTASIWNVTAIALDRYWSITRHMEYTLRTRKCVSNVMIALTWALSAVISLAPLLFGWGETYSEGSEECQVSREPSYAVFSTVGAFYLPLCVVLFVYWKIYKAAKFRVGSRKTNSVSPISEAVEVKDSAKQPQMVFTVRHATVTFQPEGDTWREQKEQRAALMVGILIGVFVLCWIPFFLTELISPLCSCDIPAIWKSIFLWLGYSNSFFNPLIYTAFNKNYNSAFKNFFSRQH
Muscarinic acetylcholine receptor M5 (Homo sapiens), sequence (P08912 whole entry): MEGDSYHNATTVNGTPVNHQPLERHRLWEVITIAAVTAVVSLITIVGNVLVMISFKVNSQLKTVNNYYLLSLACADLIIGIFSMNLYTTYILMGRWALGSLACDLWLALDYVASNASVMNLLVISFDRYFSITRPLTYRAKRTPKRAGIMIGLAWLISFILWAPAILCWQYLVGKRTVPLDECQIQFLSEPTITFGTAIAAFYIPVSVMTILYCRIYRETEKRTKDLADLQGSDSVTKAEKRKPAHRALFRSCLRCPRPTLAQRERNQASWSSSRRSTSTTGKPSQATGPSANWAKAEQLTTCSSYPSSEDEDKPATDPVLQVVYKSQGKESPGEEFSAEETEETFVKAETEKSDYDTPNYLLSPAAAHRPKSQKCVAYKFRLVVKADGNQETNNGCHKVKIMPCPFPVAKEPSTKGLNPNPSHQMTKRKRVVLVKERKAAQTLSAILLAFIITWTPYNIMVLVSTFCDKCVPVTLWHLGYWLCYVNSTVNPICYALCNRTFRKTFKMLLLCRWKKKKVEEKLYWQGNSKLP
Alpha-2A adrenergic receptor, sequence (P08913 whole entry): as the sequence (P08913 whole entry) above

Structure (SMILES)	inhibition [1] [%]	inhibition [2] [%]	IC50 [3]	inhibition [4] [%]	inhibition [5] [%]	inhibition [6] [%]	inhibition [7] [%]	inhibition [8] [%]	inhibition [9] [%]	inhibition [10] [%]	inhibition [11] [%]	inhibition [12] [%]	inhibition [13] [%]	inhibition [14] [%]	inhibition [15] [%]	IC50 [16]	inhibition [17] [%]	inhibition [18] [%]	inhibition [19] [%]	inhibition [20] [%]	other results
Cc1noc(C)c1-c1cnc2cc(C(=O)NCCC[n+]3ccc(N(C)C)cc3)ccn12	9.17	36	> 10 µM (not active)	14.1	-7.67	-2.67	-6.53	-3.02	-4.21	4.99	3.03	-1.12	3.4	1.28	24.2	> 10 µM (not active)	1.7	7.75	-5.36	18	inhibition [21]: 25.1%; IC50 [22]: > 20 µM (not active); inhibition [23]: 28.2%; inhibition [24]: -1.11%; inhibition [25]: 1.75%; inhibition [26]: 16.1%; inhibition [27]: 15.9%; inhibition [28]: 81.7%; inhibition [29]: -2.29%; inhibition [30]: 3.84%; IC50 [31]: > 10 µM (not active); inhibition [32]: 10.3%; inhibition [33]: 2.11%
CNc1cc[n+](CCNC(=O)c2ccn3c(-c4c(C)noc4C)cnc3c2)cc1	31.1	9.04	> 11.8 µM (not active)	27.5	20.9	-2.83	8.88	1.07	17	6.7	11.3	-5	5.99	7.14	19.5	5.52 µM (not active)	0.79	3.34	20.1	0.75	inhibition [21]: 35.5%; IC50 [22]: 1.4 µM (not active); inhibition [23]: 32.3%; inhibition [24]: 10.6%; inhibition [25]: -2.68%; inhibition [26]: 49.5%; inhibition [27]: 3.02%; inhibition [28]: 33.4%; inhibition [29]: 3.22%; inhibition [30]: 2.87%; IC50 [31]: 10 µM (not active); inhibition [32]: 4.13%; inhibition [33]: 1.15%
